Source: patent publication US20050245399A1, “Pyrazole derivatives as herbicidal compositions containing them” (ISHIHARA SANGYO KAISHA, LTD., priority 2004, published 2005)

Key:
Type in all cases: in vivo
[1] = system: prickly sida (Sida spinosa L.): SEDSP; experiment: Test Example 1 pre-emergence herbicidal activity, SIDSP; details: visually observed 20th to 23rd day after application
In short: (§1)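 Scoring was visual growth control (0 = untreated, 100 = complete kill) on days 20–23 post-application. Treatment came as a pre-emergence spray one day after sowing in upland soil, using wettable powder or emulsifiable concentrate diluted in 500 L/ha water at predetermined active-ingredient amounts.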

[2] = system: velvetleaf (Abutilon theophrasti): ABUTH; experiment: Test Example 1 pre-emergence herbicidal activity, ABUTH; details: visually observed 20th to 23rd day after application
In short: as §1

[3] = system: crabgrass (Digitaria sanguinalis L.): DIGSA; experiment: Test Example 1 pre-emergence herbicidal activity, DIGSA; details: visually observed 20th to 23rd day after application
In short: as §1

[4] = system: wheat (Triticum aestivum L.), TRZAX; experiment: Test Example 2 post-emergence (foliage treatment) herbicidal activity, TRZAX; details: 63 g a.i./ha
In short: (§2)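 A small sprayer delivered the diluted WP or EC formulation (500 L/ha water, 0.1% v/v spreader) over emerged seedlings in upland soil pots. Damage relative to untreated plants was graded visually from 0 to 100% three weeks or so later (days 20-23).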

[5] = system: barnyardgrass (Echinochloa crus-galli L.), ECHCG; experiment: Test Example 2 post-emergence (foliage treatment) herbicidal activity, ECHCG; details: 63 g a.i./ha
In short: (§3)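 Visual rating of growth control, from 0 (untreated-like) to 100 (complete kill), was done 20–23 days after post-emergence spraying. Wettable powder or emulsifiable concentrate was diluted to 500 L/ha with 0.1% (v/v) spreader. Leaf stages at application were 1.1-2.1 (ECHCG), 1.0-2.0 (DIGSA), 0.1-1.5 (AMARE) and 1.0-2 (ORYSA).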

[6] = system: green foxtail (Setaria viridis L.): SETVI; experiment: Test Example 1 pre-emergence herbicidal activity, SETVI; details: visually observed 20th to 23rd day after application
In short: as §1

[7] = system: redroot pigweed (Amaranthus retroflexus L.), AMARE; experiment: Test Example 2 post-emergence (foliage treatment) herbicidal activity, AMARE; details: 63 g a.i./ha
In short: as §3

[8] = system: rice (Oryza sativa L.), ORYSA; experiment: Test Example 2 post-emergence (foliage treatment) herbicidal activity, ORYSA; details: 63 g a.i./ha
In short: as §3

[9] = system: prickly sida (Sida spinosa L.), SIDSP; experiment: Test Example 2 post-emergence (foliage treatment) herbicidal activity, SIDSP; details: 63 g a.i./ha
In short: as §2

[10] = system: japanese bulrush (Scirpus juncoides: SCPJO); experiment: Test Example 3 water application herbicidal activity (paddy), SCPJO; details: 63 g a.i./ha, water application under submerged condition at 0.5 leaf stage, visually observed 14th day after application; 0 = untreated control, 100 = complete kill
In short: (§4)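 Submerged application in flooded paddy soil (3–4 cm water); weeds treated at 0.5-leaf stage, transplanted rice 4 d after transplanting. Scored visually as % growth control: weeds at 14 d, rice at 21 d.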

[11] = system: wheat (Triticum aestivum L.): TRZAX; experiment: Test Example 1 pre-emergence herbicidal activity, TRZAX; details: visually observed 20th to 23rd day after application
In short: as §1

[12] = system: crabgrass (Digitaria sanguinalis L.), DIGSA; experiment: Test Example 2 post-emergence (foliage treatment) herbicidal activity, DIGSA; details: 63 g a.i./ha
In short: as §3

[13] = system: rice (Oryza sativa L.: ORYSA); experiment: Test Example 3 water application herbicidal activity (paddy), transplanted rice ORYSA; details: 63 g a.i./ha, water application 4th day after transplantation of 2 leaf stage rice, visually observed 21st day after application; 0 = untreated control, 100 = complete kill
In short: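 Compound, as diluted wettable powder or emulsifiable concentrate, was pipetted into flood water at a set active-ingredient dose. Weeds were treated at 0.5-leaf stage after sowing or tuber planting; 2-leaf rice 4 days post-transplant. Control scored visually, 0 untreated to 100 complete kill, weeds day 14, rice day 21.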

[14] = system: barnyardgrass (Echinochloa crus-galli L.): ECHCG; experiment: Test Example 1 pre-emergence herbicidal activity, ECHCG; details: visually observed 20th to 23rd day after application
In short: as §1

[15] = system: corn (Zea mays L.), ZEAMX; experiment: Test Example 2 post-emergence (foliage treatment) herbicidal activity, ZEAMX; details: 63 g a.i./ha
In short: as §2

[16] = system: soybean (Glycine max Merr.): GLXMA; experiment: Test Example 1 pre-emergence herbicidal activity, GLXMA; details: visually observed 20th to 23rd day after application
In short: as §1

[17] = system: rice (Oryza sativa L.): ORYSA; experiment: Test Example 1 pre-emergence herbicidal activity, ORYSA; details: visually observed 20th to 23rd day after application
In short: as §1

[18] = system: velvetleaf (Abutilon theophrasti), ABUTH; experiment: Test Example 2 post-emergence (foliage treatment) herbicidal activity, ABUTH; details: 63 g a.i./ha
In short: as §2

[19] = system: redroot pigweed (Amaranthus retroflexus L.): AMARE; experiment: Test Example 1 pre-emergence herbicidal activity, AMARE; details: visually observed 20th to 23rd day after application
In short: as §1

[20] = system: green foxtail (Setaria viridis L.), SETVI; experiment: Test Example 2 post-emergence (foliage treatment) herbicidal activity, SETVI; details: 63 g a.i./ha
In short: as §2

[21] = system: soybean (Glycine max Merr.), GLXMA; experiment: Test Example 2 post-emergence (foliage treatment) herbicidal activity, GLXMA; details: 63 g a.i./ha
In short: as §2

[22] = system: japanese ribbon wapato (Sagittaria pygmaea: SA GPY); experiment: Test Example 3 water application herbicidal activity (paddy), SAGPY; details: 63 g a.i./ha, water application under submerged condition, tubers planted, visually observed 14th day after application; 0 = untreated control, 100 = complete kill
In short: as §4

[23] = system: barnyardgrass (Echinochiloa oryzicola: ECHOR); experiment: Test Example 3 water application herbicidal activity (paddy), ECHOR; details: 63 g a.i./ha, water application under submerged condition at 0.5 leaf stage, visually observed 14th day after application; 0 = untreated control, 100 = complete kill
In short: as §4

[24] = system: corn (Zea mays L.): ZEAMX; experiment: Test Example 1 pre-emergence herbicidal activity, ZEAMX; details: visually observed 20th to 23rd day after application
In short: as §1

COc1c(Cl)cc(F)c(-c2nn(C)c(OC(F)F)c2Cl)c1NC(=O)c1ccccc1C(F)(F)F [Compound 1-25]
Pre-emergence Herbicidal Activity SIDSP (growth controlling degree) ([1]; Rate 63 g a.i./ha): 100%
Pre-emergence Herbicidal Activity ABUTH (growth controlling degree) ([2]; Rate 63 g a.i./ha): 100%
Pre-emergence Herbicidal Activity DIGSP (growth controlling degree) ([3]; Rate 63 g a.i./ha): 98%
growth controlling degree, TRZAX [4]: 40%
growth controlling degree, ECHCO [5]: 98%
Pre-emergence Herbicidal Activity SETVI (growth controlling degree) ([6]; Rate 63 g a.i./ha): 95%
growth controlling degree, AMARE [7]: 100%
growth controlling degree, ORYSA [8]: 90%
growth controlling degree, SIDSP [9]: 100%
growth controlling degrees (%) SCPJO [10]: 95%
Pre-emergence Herbicidal Activity TRZAX (growth controlling degree) ([11]; Rate 63 g a.i./ha): 0%
growth controlling degree, DIGSP [12]: 100%
growth controlling degrees (%) ORYSA [13]: 60%
Pre-emergence Herbicidal Activity ECHCG (growth controlling degree) ([14]; Rate 63 g a.i./ha): 60%
growth controlling degree, ZEAMX [15]: 90%
Pre-emergence Herbicidal Activity GLXMA (growth controlling degree) ([16]; Rate 63 g a.i./ha): 0%
Pre-emergence Herbicidal Activity ORYSA (growth controlling degree) ([17]; Rate 63 g a.i./ha): 40%
growth controlling degree, ABUTH [18]: 100%
Pre-emergence Herbicidal Activity AMARE (growth controlling degree) ([19]; Rate 63 g a.i./ha): 100%
growth controlling degree, SETVI [20]: 100%
growth controlling degree, GLXMA [21]: 98%
growth controlling degrees (%) SAGPY [22]: 100%
growth controlling degrees (%) ECHOR [23]: 98%
Pre-emergence Herbicidal Activity ZEAMX (growth controlling degree) ([24]; Rate 63 g a.i./ha): 0%

COc1c(Cl)cc(F)c(-c2nn(C)c(OC(F)F)c2Cl)c1N(C(=O)OCCl)C(=O)OCCl [Compound 1-55]
Pre-emergence Herbicidal Activity SIDSP (growth controlling degree) ([1]; Rate 125 g a.i./ha): 95%
Pre-emergence Herbicidal Activity ABUTH (growth controlling degree) ([2]; Rate 125 g a.i./ha): 70%
Pre-emergence Herbicidal Activity DIGSP (growth controlling degree) ([3]; Rate 125 g a.i./ha): 95%
growth controlling degree, TRZAX [4]: 10%
growth controlling degree, ECHCO [5]: 60%
Pre-emergence Herbicidal Activity SETVI (growth controlling degree) ([6]; Rate 125 g a.i./ha): 100%
growth controlling degree, AMARE [7]: 100%
growth controlling degree, ORYSA [8]: 50%
growth controlling degree, SIDSP [9]: 100%
growth controlling degrees (%) SCPJO [10]: 95%
Pre-emergence Herbicidal Activity TRZAX (growth controlling degree) ([11]; Rate 125 g a.i./ha): 20%
growth controlling degree, DIGSP [12]: 0%
growth controlling degrees (%) ORYSA [13]: 50%
Pre-emergence Herbicidal Activity ECHCG (growth controlling degree) ([14]; Rate 125 g a.i./ha): 50%
growth controlling degree, ZEAMX [15]: 10%
Pre-emergence Herbicidal Activity GLXMA (growth controlling degree) ([16]; Rate 125 g a.i./ha): 0%
Pre-emergence Herbicidal Activity ORYSA (growth controlling degree) ([17]; Rate 125 g a.i./ha): 10%
growth controlling degree, ABUTH [18]: 100%
Pre-emergence Herbicidal Activity AMARE (growth controlling degree) ([19]; Rate 125 g a.i./ha): 100%
growth controlling degree, SETVI [20]: 30%
growth controlling degree, GLXMA [21]: 30%
growth controlling degrees (%) SAGPY [22]: 100%
growth controlling degrees (%) ECHOR [23]: 100%
Pre-emergence Herbicidal Activity ZEAMX (growth controlling degree) ([24]; Rate 125 g a.i./ha): 0%

COc1c(Cl)cc(F)c(-c2nn(C)c(OC(F)F)c2Cl)c1NC(=O)c1ccccc1Cl [Compound 1-23]
Pre-emergence Herbicidal Activity SIDSP (growth controlling degree) ([1]; Rate 63 g a.i./ha): 100%
Pre-emergence Herbicidal Activity ABUTH (growth controlling degree) ([2]; Rate 63 g a.i./ha): 90%
Pre-emergence Herbicidal Activity DIGSP (growth controlling degree) ([3]; Rate 63 g a.i./ha): 100%
growth controlling degree, TRZAX [4]: 40%
growth controlling degree, ECHCO [5]: 98%
Pre-emergence Herbicidal Activity SETVI (growth controlling degree) ([6]; Rate 63 g a.i./ha): 95%
growth controlling degree, AMARE [7]: 100%
growth controlling degree, ORYSA [8]: 90%
growth controlling degree, SIDSP [9]: 100%
growth controlling degrees (%) SCPJO [10]: 80%
Pre-emergence Herbicidal Activity TRZAX (growth controlling degree) ([11]; Rate 63 g a.i./ha): 40%
growth controlling degree, DIGSP [12]: 90%
growth controlling degrees (%) ORYSA [13]: 40%
Pre-emergence Herbicidal Activity ECHCG (growth controlling degree) ([14]; Rate 63 g a.i./ha): 80%
growth controlling degree, ZEAMX [15]: 80%
Pre-emergence Herbicidal Activity GLXMA (growth controlling degree) ([16]; Rate 63 g a.i./ha): 30%
Pre-emergence Herbicidal Activity ORYSA (growth controlling degree) ([17]; Rate 63 g a.i./ha): 40%
growth controlling degree, ABUTH [18]: 100%
Pre-emergence Herbicidal Activity AMARE (growth controlling degree) ([19]; Rate 63 g a.i./ha): 100%
growth controlling degree, SETVI [20]: 100%
growth controlling degree, GLXMA [21]: 98%
growth controlling degrees (%) SAGPY [22]: 98%
growth controlling degrees (%) ECHOR [23]: 100%
Pre-emergence Herbicidal Activity ZEAMX (growth controlling degree) ([24]; Rate 63 g a.i./ha): 0%

COc1c(Cl)cc(F)c(-c2nn(C)c(OC(F)F)c2Cl)c1NC(=O)c1ccccc1F [Compound 1-22]
Pre-emergence Herbicidal Activity SIDSP (growth controlling degree) ([1]; Rate 63 g a.i./ha): 100%
Pre-emergence Herbicidal Activity ABUTH (growth controlling degree) ([2]; Rate 63 g a.i./ha): 100%
Pre-emergence Herbicidal Activity DIGSP (growth controlling degree) ([3]; Rate 63 g a.i./ha): 100%
growth controlling degree, TRZAX [4]: 40%
growth controlling degree, ECHCO [5]: 100%
Pre-emergence Herbicidal Activity SETVI (growth controlling degree) ([6]; Rate 63 g a.i./ha): 100%
growth controlling degree, AMARE [7]: 100%
growth controlling degree, ORYSA [8]: 95%
growth controlling degree, SIDSP [9]: 100%
growth controlling degrees (%) SCPJO [10]: 95%
Pre-emergence Herbicidal Activity TRZAX (growth controlling degree) ([11]; Rate 63 g a.i./ha): 10%
growth controlling degree, DIGSP [12]: 100%
growth controlling degrees (%) ORYSA [13]: 40%
Pre-emergence Herbicidal Activity ECHCG (growth controlling degree) ([14]; Rate 63 g a.i./ha): 80%
growth controlling degree, ZEAMX [15]: 90%
Pre-emergence Herbicidal Activity GLXMA (growth controlling degree) ([16]; Rate 63 g a.i./ha): 50%
Pre-emergence Herbicidal Activity ORYSA (growth controlling degree) ([17]; Rate 63 g a.i./ha): 50%
growth controlling degree, ABUTH [18]: 100%
Pre-emergence Herbicidal Activity AMARE (growth controlling degree) ([19]; Rate 63 g a.i./ha): 100%
growth controlling degree, SETVI [20]: 100%
growth controlling degree, GLXMA [21]: 98%
growth controlling degrees (%) SAGPY [22]: 98%
growth controlling degrees (%) ECHOR [23]: 100%
Pre-emergence Herbicidal Activity ZEAMX (growth controlling degree) ([24]; Rate 63 g a.i./ha): 20%
